This passage reports pA2 results from ChEMBL document CHEMBL1124159, “Synthesis and structure-activity relationships of 2-sulfonamido-1,3,4,6,7,11b alpha-hexahydro-2H-benzo[a]quinolizines as alpha 2-adrenoceptor antagonists” (J Med Chem, 1988).

For assay [1], the target named is T1, Adrenergic receptor alpha-2 (Rattus norvegicus, UniProt P22086+P19328+P22909).
T1 sequence (P22086 whole entry): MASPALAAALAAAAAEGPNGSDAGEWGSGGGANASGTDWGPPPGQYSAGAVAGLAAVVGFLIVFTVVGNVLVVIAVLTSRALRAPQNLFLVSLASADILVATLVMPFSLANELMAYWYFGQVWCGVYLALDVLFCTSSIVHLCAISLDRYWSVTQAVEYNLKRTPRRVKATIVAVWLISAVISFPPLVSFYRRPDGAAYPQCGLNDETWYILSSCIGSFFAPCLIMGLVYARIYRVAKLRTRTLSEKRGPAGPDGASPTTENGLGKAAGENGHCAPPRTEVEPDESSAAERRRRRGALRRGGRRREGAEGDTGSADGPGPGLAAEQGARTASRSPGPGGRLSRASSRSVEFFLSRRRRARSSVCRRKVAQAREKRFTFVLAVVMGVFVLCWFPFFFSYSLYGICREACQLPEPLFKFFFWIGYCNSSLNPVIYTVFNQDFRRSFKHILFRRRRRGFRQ
T1 sequence (P19328 whole entry): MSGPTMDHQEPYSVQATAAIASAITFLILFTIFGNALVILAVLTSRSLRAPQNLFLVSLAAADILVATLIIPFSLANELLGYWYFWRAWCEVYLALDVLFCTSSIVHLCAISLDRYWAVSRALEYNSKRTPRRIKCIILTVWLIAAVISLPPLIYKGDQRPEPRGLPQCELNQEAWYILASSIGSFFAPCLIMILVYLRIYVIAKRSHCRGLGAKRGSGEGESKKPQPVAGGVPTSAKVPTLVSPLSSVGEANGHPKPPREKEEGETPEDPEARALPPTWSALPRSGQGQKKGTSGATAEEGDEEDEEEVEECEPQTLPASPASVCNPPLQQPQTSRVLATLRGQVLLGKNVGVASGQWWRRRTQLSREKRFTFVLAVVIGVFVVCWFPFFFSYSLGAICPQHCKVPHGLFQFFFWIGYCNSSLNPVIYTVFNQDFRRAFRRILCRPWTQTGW
T1 sequence (P22909 whole entry): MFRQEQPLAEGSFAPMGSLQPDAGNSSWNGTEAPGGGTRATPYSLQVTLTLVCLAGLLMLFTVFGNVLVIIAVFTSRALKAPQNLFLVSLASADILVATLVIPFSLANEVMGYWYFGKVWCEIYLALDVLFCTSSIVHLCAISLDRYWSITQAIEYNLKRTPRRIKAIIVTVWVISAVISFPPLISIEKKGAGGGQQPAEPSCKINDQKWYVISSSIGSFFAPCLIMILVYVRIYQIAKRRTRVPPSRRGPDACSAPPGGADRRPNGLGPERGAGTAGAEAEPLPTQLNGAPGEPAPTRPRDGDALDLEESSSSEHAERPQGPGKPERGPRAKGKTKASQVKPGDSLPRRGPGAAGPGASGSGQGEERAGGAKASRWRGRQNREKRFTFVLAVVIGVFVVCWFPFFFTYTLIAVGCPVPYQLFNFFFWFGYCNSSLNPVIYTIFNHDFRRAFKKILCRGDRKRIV
Nature of the assay: Antagonistic activity against alpha-2 adrenergic receptor in rat vas deferens. Type of assay: functional, tissue-based.

Assay [2] addresses T2, Adrenergic receptor alpha-1 (Rattus norvegicus, UniProt P15823+P23944+P43140).
T2 sequence (P15823 whole entry): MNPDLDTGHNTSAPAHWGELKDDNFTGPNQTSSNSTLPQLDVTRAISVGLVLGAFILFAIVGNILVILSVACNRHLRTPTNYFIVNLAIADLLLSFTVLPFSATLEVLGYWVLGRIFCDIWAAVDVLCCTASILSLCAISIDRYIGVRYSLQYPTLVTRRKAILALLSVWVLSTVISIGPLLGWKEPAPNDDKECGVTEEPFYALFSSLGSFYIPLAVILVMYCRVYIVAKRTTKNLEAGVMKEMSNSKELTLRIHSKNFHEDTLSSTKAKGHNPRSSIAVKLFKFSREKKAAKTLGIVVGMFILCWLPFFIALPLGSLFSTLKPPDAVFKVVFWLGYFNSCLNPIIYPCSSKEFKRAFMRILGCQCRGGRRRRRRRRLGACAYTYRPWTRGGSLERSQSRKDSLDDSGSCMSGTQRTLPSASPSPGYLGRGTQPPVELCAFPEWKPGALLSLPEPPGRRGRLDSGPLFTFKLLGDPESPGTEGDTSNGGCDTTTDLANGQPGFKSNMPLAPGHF
T2 sequence (P23944 whole entry): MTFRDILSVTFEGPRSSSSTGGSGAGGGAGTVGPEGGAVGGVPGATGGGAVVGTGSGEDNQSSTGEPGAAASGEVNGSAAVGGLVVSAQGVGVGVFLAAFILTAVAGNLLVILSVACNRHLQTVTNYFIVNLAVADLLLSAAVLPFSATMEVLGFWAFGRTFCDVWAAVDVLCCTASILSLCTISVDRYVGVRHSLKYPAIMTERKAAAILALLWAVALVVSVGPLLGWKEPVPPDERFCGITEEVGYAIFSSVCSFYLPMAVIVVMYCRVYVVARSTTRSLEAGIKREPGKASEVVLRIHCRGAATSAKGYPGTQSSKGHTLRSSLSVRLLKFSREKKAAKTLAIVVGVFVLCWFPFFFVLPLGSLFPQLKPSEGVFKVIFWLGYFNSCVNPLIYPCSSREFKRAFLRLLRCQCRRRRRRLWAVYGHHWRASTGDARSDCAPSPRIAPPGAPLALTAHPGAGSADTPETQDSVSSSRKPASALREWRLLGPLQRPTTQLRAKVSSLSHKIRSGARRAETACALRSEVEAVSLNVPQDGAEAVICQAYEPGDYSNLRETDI
T2 sequence (P43140 whole entry): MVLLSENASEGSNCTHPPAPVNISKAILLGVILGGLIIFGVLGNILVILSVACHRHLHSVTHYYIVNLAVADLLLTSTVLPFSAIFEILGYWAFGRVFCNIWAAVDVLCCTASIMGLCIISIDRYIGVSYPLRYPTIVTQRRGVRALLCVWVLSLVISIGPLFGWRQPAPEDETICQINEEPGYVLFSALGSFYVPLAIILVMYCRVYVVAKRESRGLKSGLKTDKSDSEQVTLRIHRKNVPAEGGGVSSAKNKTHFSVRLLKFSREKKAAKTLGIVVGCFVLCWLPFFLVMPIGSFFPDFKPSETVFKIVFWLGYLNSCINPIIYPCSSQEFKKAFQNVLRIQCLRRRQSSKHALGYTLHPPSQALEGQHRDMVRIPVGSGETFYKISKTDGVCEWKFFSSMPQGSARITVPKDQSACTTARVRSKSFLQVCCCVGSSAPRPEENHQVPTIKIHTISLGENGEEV
Nature of the assay: Antagonistic activity against alpha-1 adrenergic receptor in isolated rat anococcygeus muscle. It counts as functional, tissue-based.

Turning to `CN([C@@H]1CCN2CCc3ccccc3[C@@H]2C1)S(=O)(=O)CC(C)(C)C`, the pA2 in assay [1] is recorded as 8.11; in assay [2], 6.5. Consider `CN([C@@H]1CCN2CCc3ccccc3[C@@H]2C1)S(=O)(=O)c1cccc2cccnc12`, for which the pA2 in assay [1] was found to be 8.46; in assay [2] it was 6.84. As to `CCCS(=O)(=O)N(C)[C@@H]1CCN2CCc3ccccc3[C@@H]2C1` (stereo in doubt; 10), the pA2 came to 8.08 in assay [1] and 6.34 in assay [2]. With `CN([C@@H]1CCN2CCc3ccccc3[C@@H]2C1)S(=O)(=O)CCN1CCCCC1`, the pA2 in assay [1] was 7.5; in assay [2] it was 6.11.

As for `CN([C@H]1CCN2CCc3ccccc3[C@H]2C1)S(C)(=O)=O`, the pA2 in assay [1] is on record as less than 5; in assay [2], 5.3.

Take `C=CS(=O)(=O)N(C)[C@@H]1CCN2CCc3ccccc3[C@@H]2C1`: the pA2 amounted to 7.93 in assay [1] and 6.32 in assay [2]. With `CN([C@@H]1CCN2CCc3ccccc3[C@@H]2C1)S(=O)(=O)CC1CC1`, the pA2 in assay [1] came to 7.7; in assay [2], 6.7. On to `CN([C@@H]1CCN2CCc3ccccc3[C@@H]2C1)S(C)(=O)=O` (stereo in doubt), for which the results for the pA2 in assay [1] and in assay [2] were 8.05 and 6.48, respectively.

As to `CN([C@@H]1CCN2CCc3ccccc3[C@@H]2C1)S(=O)(=O)C(F)(F)F`, the figures for the pA2 in assay [1] and in assay [2] were 7.15 and 5.49, respectively. Turning to `CN([C@@H]1CCN2CCc3ccccc3[C@@H]2C1)S(=O)(=O)CCl`, the results for the pA2 in assay [1] and in assay [2] were 8.26 and 6.61, respectively.

In the case of `CN([C@@H]1CCN2CCc3ccccc3[C@@H]2C1)S(N)(=O)=O`, the pA2 in assay [1] was 7.1; in assay [2] it was 5.7. As to `CN([C@@H]1CCN2CCc3ccccc3[C@@H]2C1)S(=O)(=O)c1cccc2ccccc12`, the pA2 in assay [1] was 8.06; in assay [2], 7.1. `CCS(=O)(=O)N(C)[C@@H]1CCN2CCc3ccccc3[C@@H]2C1`: the values for the pA2 in assay [1] and in assay [2] were 7.7 and 6.17, respectively. As to `CCOC(=O)N(C)[C@@H]1CCN2CCc3ccccc3[C@@H]2C1`, the pA2 in assay [2] is listed as 6.93. Regarding `CN([C@@H]1CCN2CCc3ccccc3[C@@H]2C1)S(=O)(=O)N1CCCC1`, the pA2 amounted to 8.1 in assay [1] and 6.7 in assay [2]. As for `COc1ccc(S(=O)(=O)N(C)[C@@H]2CCN3CCc4ccccc4[C@@H]3C2)cc1`, the pA2 in assay [1] is 8.1; in assay [2], 6.5. As to `Cc1ccc(S(=O)(=O)N(C)[C@@H]2CCN3CCc4ccccc4[C@@H]3C2)cc1`, the pA2 in assay [1] amounted to 8.1; in assay [2] it was 6.84.

For `CN([C@@H]1CCN2CCc3ccccc3[C@@H]2C1)S(=O)(=O)c1ccc(Cl)cc1`, the pA2 in assay [1] is reported as 7.6; in assay [2], 6.09.

On to `CN([C@@H]1CCN2CCc3ccccc3[C@@H]2C1)S(=O)(=O)CC(F)(F)F`, for which the pA2 in assay [1] is listed as 7.56; in assay [2], 5.93.

In the case of `CN(C)S(=O)(=O)N(C)[C@@H]1CCN2CCc3ccccc3[C@@H]2C1`, the pA2 in assay [1] turned out to be 7.4; in assay [2] it was 5.95. Take `CN([C@@H]1CCN2CCc3ccccc3[C@@H]2C1)S(=O)(=O)c1cccnc1`: the pA2 came out at 8.22 in assay [1] and 6.73 in assay [2]. Consider `CCCS(=O)(=O)N(C)[C@@H]1CCN2CCc3ccccc3C2C1` (stereo partly specified), for which the pA2 came out at 5.78 in assay [1] and 5.86 in assay [2]. For `CN([C@@H]1CCN2CCc3ccccc3C2C1)S(C)(=O)=O` (stereo partly specified), in assay [1], the pA2 is 5.7. `CC(C)CS(=O)(=O)N(C)[C@@H]1CCN2CCc3ccccc3[C@@H]2C1` (stereo in doubt; 16): the pA2 is 8.16 in assay [1] and 6.49 in assay [2].

As to `CNS(=O)(=O)N(C)[C@@H]1CCN2CCc3ccccc3[C@@H]2C1`, the pA2 in assay [1] stood at 7.44; in assay [2] it was 6.19. In assay [2], `COC(=O)N(C)[C@@H]1CCN2CCc3ccccc3[C@@H]2C1` gave a pA2 of 6.56. `CC(C)COC(=O)N(C)[C@@H]1CCN2CCc3ccccc3[C@@H]2C1`: the pA2 in assay [2] is 7. For `COP(=O)(OC)N(C)[C@@H]1CCN2CCc3ccccc3[C@@H]2C1`, the pA2 in assay [1] is 6.63.

Consider `CCN([C@@H]1CCN2CCc3ccccc3[C@@H]2C1)S(C)(=O)=O`, for which the pA2 in assay [1] is 7.39; in assay [2], 6.61.

Turning to `CC(C)CS(=O)(=O)N(C)[C@H]1CCN2CCc3ccccc3[C@H]2C1`, the results for the pA2 in assay [1] and in assay [2] were less than 5 and 5.2, respectively. In assay [1], `CCCCCCCCCCCCS(=O)(=O)N(C)[C@@H]1CCN2CCc3ccccc3[C@@H]2C1` came in with a pA2 of less than 5. In the case of `CN([C@@H]1CCN2CCc3ccccc3[C@@H]2C1)S(=O)(=O)c1ccsc1`, the results for the pA2 in assay [1] and in assay [2] were 7.94 and 6.65, respectively.

Consider `CN([C@@H]1CCN2CCc3ccccc3[C@@H]2C1)S(C)(=O)=O` (stereo in doubt; 6), for which the figures for the pA2 in assay [1] and in assay [2] were 7.81 and 6.04, respectively.

Turning to `CC(C)CS(=O)(=O)N[C@@H]1CCN2CCc3ccccc3[C@@H]2C1`, the pA2 in assay [1] was 6.34; in assay [2], 6.55. `CN(C)CCS(=O)(=O)N(C)[C@@H]1CCN2CCc3ccccc3[C@@H]2C1`: the pA2 turned out to be 7.26 in assay [1] and 5.6 in assay [2].

Consider `CCCCCS(=O)(=O)N(C)[C@@H]1CCN2CCc3ccccc3[C@@H]2C1`, for which the results for the pA2 in assay [1] and in assay [2] were 7.74 and 6.8, respectively.
